A melting point compilation (Tetko et al.; mined from patent text by program, amines drawn as free bases though some values may be those of a salt)

Work on `CC(C)(C)c1cc(SCCC(=O)N2CCOCC2)cc(C(C)(C)C)c1O` yielded a melting point of 136 to 138 °C. For `O=C(O)C=CC(F)(F)F`, the melting point was 95 to 100 °C. `OC1(C2(Cl)CC2)Cc2ncnn2C(CC(Cl)(Cl)Cl)C1` (stereo not given) gave a melting point of 153 to 154 °C. For `CCOC(=O)C1CCCN1C(=O)c1cc2c(cc1[N+](=O)[O-])OCO2` (stereo not given), the melting point was 94 °C. Compound `COCCOCn1c(Cl)c(C=O)c2ccccc21` has a melting point of 52.5 to 54 °C. `CS(=O)(=O)c1c(Cl)nc(Cl)nc1Cl` gave a melting point of 146 to 147 °C. `CCOC(=O)/C=C/c1cc(OCc2ccc(OCc3nc(-c4ccccc4)oc3C)c(OC)c2)nn1-c1ccccc1` showed a melting point of 121 to 122 °C. Compound `Cc1ccc(S(=O)(=O)N[C@@H](C)C(=O)Oc2csc(-c3ccccc3)n2)cc1` has a melting point of 110 to 112 °C. In the case of `O=C(O)c1cnn2c(C(F)F)cc(-c3ccc(C(F)(F)F)cc3)nc12`, the melting point is reported as 261 °C. With `CC1(C)OC(=O)C(c2ccc3sccc3c2)O1` (single isomer, unassigned; (-)) the melting point was 116 to 117 °C. `ClCCC(=C(c1ccccc1)c1ccc(OCCN2CCCC2)cc1)c1ccccc1` showed a melting point of 112 to 115 °C. In the case of `CCOC(=O)NN=Cc1c[nH]c(-c2ccccc2)n1`, the melting point is reported as 196 to 200 °C. Work on `NC(=O)N1CCN(CC(O)COc2ccc(O)cc2)CC1` (stereo not given) yielded a melting point of 198 to 201 °C. Compound `COc1ccc(CN2C(=O)C(NC(=O)Nc3ccccc3)C(=O)N(CCC(C)C)c3ccccc32)cc1` (stereo not given) has a melting point of 206 to 208 °C. In the case of `CC(=O)c1cccc(NC(=O)c2cc(C(N)=O)cc(C(=O)N(c3cccc(C(C)=O)c3)c3cccc(C(C)=O)c3)c2)c1`, the melting point is reported as 270 °C. In the case of `O=C1NN=C(c2ccc(C3CCCCC3)cc2)C2CC12` (stereo not given), the melting point is reported as 211 to 212 °C. `CC(C)(C)OC(=O)NCCc1ccc(Oc2cc(C#N)ccn2)cc1` showed a melting point of 92 to 96 °C. Compound `CSC(=NC(=O)CS(C)(=O)=O)N(C)N=Cc1ccccc1` has a melting point of 150 °C. Work on `CCc1c(-c2ccncn2)ssc1=S` yielded a melting point of 100 to 102 °C. `CCc1nn(C2CCCC2)c2cc(C3=NOC(C)(c4noc(-c5cc(OC)cc(OC)c5)n4)C3)ccc12` (stereo not given) showed a melting point of 154 to 155 °C. `COc1ccc(C(=NOC(C)=O)c2cc(F)ccc2F)c(O)c1` gave a melting point of 110 to 111 °C. With `Cc1c(NC(=O)c2ccnc(NCc3ccc(=O)[nH]c3)c2)cccc1C(F)(F)F` the melting point was 196 to 201 °C. `O=C1CCC(N2C(=O)c3cccc(CNC(=O)c4cc5ccccc5cn4)c3C2=O)C(=O)N1` (stereo not given) gave a melting point of 198 to 200 °C. `CCCCC(CC)C(=O)Nc1ccc(-n2nc(C(F)(F)F)cc2C(F)(F)F)cc1` (stereo not given) showed a melting point of 127 to 128 °C. In the case of `O=C1c2sccc2-n2cnc(-c3noc(CCl)n3)c2[C@@H]2CCN12`, the melting point is reported as 210 to 213 °C. Compound `ON=C1CN2CCC1CC2` has a melting point of 117 to 119 °C. Work on `COC(=O)NC(C)Cc1cccc([N+](=O)[O-])c1` (stereo not given) yielded a melting point of 104 to 105 °C. With `CN(C)C=C(C=O)c1ccc(Cl)cc1` the melting point was 117 to 120 °C. In the case of `COC(=O)c1ccc(-c2nc(-c3c(F)c(F)c(F)c(F)c3F)cs2)cc1`, the melting point is reported as 141 to 142 °C. For `O=C(Nc1cc2ncc(CN3CCCC3)cc2cc1F)c1ccc(-c2ccc(Cl)cc2)cc1F`, the melting point was 217 to 219 °C. Work on `O=C(O)c1cccc2c1CCc1ccsc1-2` yielded a melting point of 182 to 184 °C. With `CCOC(=O)Nc1cc(N2CCN(c3ccc([N+](=O)[O-])cc3)CC2)ccn1` the melting point was 243 to 245 °C. For `O[C@H](COc1ccccc1C=Cc1nc2ccccc2s1)CN1CCC(c2ccc3ccccc3c2)CC1`, the melting point was 125 to 127 °C. For `COc1cccn2nc(S(=O)(=O)Nc3c(F)cccc3F)nc12`, the melting point was 254 to 255 °C. `O=C1Nc2ccc(Cl)cc2CN2CCCC12` (stereo not given) showed a melting point of 97 to 99 °C. `CN(C)c1cccc(NC(=O)N(C[C@H]2CC[C@H](CN(C(=O)Nc3cccc(N(C)C)c3)C3CCCCCC3)CC2)C2CCCCCC2)c1` showed a melting point of 151 to 156 °C. Compound `COC(=O)c1ccc(NC(=O)C(CC(=O)O)c2ccccc2)cc1` (stereo not given) has a melting point of 190 °C. Work on `CN(C(N)=O)C1Nc2ccc(Cl)cc2Oc2ccccc21` (stereo not given) yielded a melting point of 146 to 149 °C. `CC(=O)N1CC(C)(C)c2cc3nc[nH]c3cc21` gave a melting point of 214 to 216 °C. Compound `O=C1Nc2ccsc2C(=O)N2CC[C@@H]12` has a melting point of 274 °C. In the case of `COc1cc(C(=O)O)ccc1OCCCCCOc1ccc(C#N)cc1`, the melting point is reported as 159 to 161 °C. For `CCN1c2ncc(CCc3ccccc3)cc2C(=O)N(C)c2c1ncc(C)c2C`, the melting point was 187 to 188 °C. `N#Cc1ccc(NC(=O)C(=O)N2CCC(Cc3ccc(F)cc3)CC2)cc1` gave a melting point of 167 to 169 °C. In the case of `COc1ccc2c(c1)C(N1CCCC1=O)NN=C2Cc1c(Cl)cncc1Cl` (stereo not given), the melting point is reported as 223 to 225 °C. `CCOC(=O)c1cc(C=O)c2ccccn2c1=O` showed a melting point of 179 to 181 °C. In the case of `O=C(COc1cccc(Cl)c1)NCCO[N+](=O)[O-]`, the melting point is reported as 62 to 64 °C. In the case of `N#Cc1ccc([C@@H]2[C@@H]3C(=O)N(CC4CCCCC4)C(=O)[C@@H]3[C@H]3CCCN32)cc1` (racemic), the melting point is reported as 119 to 122 °C. `COc1ccc(C(=O)Nc2cc(NC(=O)c3cccc(N(C)S(C)(=O)=O)c3)ccc2C)cc1OC` showed a melting point of 168 to 169 °C. For `COc1cc(OC(C)C)ccc1-c1nc(-c2ccc(OC(C)C)cc2O)nc(-c2ccc(OC(C)C)cc2O)n1`, the melting point was 185 to 188 °C. Compound `COc1ccccc1N1CCN(CCC(C(=O)NCCN2CCOCC2)c2ccccc2)CC1` (stereo not given) has a melting point of 60 to 65 °C. In the case of `O=C(NCC1Cc2cccc(-c3ccc(C(F)(F)F)cc3)c2O1)OCc1ccccc1` (stereo not given), the melting point is reported as 100 to 102 °C. Compound `CSc1nc(C)nc(SC)c1NC(=O)CCCCCSc1nc2ccccc2o1` has a melting point of 148 to 151 °C. For `N#Cc1cccc(NC(=O)NC2N=C(CN3CCOCC3)c3ccccc3NC2=O)c1` (stereo not given), the melting point was 249 to 250 °C. Compound `CC(C)(C)c1ccc2c(c1)C(CO)c1cc(C(C)(C)C)ccc1S2` has a melting point of 158 to 159 °C. With `Cc1cc(Cl)c(-n2nc(C)n(C(F)F)c2=O)cc1OC(C)C(=O)O` (stereo not given) the melting point was 56 to 60 °C. Work on `Cc1cc(=O)c(OCc2ccccc2)c(C(=O)NC2CCC2)n1C` yielded a melting point of 221 to 222 °C. With `CCCCC(CC)COc1cccc2c1C(=O)c1cccc(OCC(CC)CCCC)c1C2=O` (stereo not given) the melting point was 105 °C. Compound `CCn1c(N)c(-c2ncc[nH]2)c(=O)c2ccc(-c3ccc(C(C)C(=O)NCc4ccncc4)cc3)nc21` (stereo not given) has a melting point of 186 °C. Work on `C#CCN(C(=O)CCl)c1c(C)nc(N(C)C)nc1C` yielded a melting point of 108 to 110 °C. `O=C(O)CCCC1CCN(CCOC(c2ccc(F)cc2)c2ccc(F)cc2)CC1` showed a melting point of 145 to 147 °C. With `OCc1cc2ccc3ccc4ccccc4c3c2o1` the melting point was 125 to 126 °C. Work on `N#CC1CCn2c(cc3ccccc32)C1` (stereo not given) yielded a melting point of 116 to 118 °C. `O=C1OC(CN2CCC(n3c(=O)[nH]c4ccccc43)CC2)CN1c1ccccc1` (stereo not given) gave a melting point of 210 to 212 °C. `Cn1c(=O)c2ccc(N)nc2n(C)c1=O` showed a melting point of 290 to 295 °C. `Nc1ncc(Oc2ccc(Cl)cc2)c(N2CCN(C=O)CC2)n1` gave a melting point of 159 to 161 °C. `N#CC(=Cc1ccc2c(c1)OCCO2)c1cccnc1` gave a melting point of 158 to 159 °C. `O=C(O)CCc1ccnc(-c2nc(=O)c3ccc(Cl)cc3s2)c1` gave a melting point of 263 to 264 °C. Work on `CNCC(O)c1cc(OC)c(O)c(OC)c1` (stereo not given) yielded a melting point of 175 °C. `CC(F)c1nc[nH]c(=O)c1Cl` (stereo not given) gave a melting point of 190 to 191 °C. `Cc1c(CO)cc([N+](=O)[O-])c(Cl)c1[N+](=O)[O-]` showed a melting point of 158 to 160 °C. `COc1ccc(C(=O)N2c3ccccc3SC2C#N)cc1` (stereo not given) gave a melting point of 122 to 123 °C. `CC(C)n1nc(-c2cc(-n3cccc3)cnc2-c2ccccc2)ccc1=O` gave a melting point of 189 to 190 °C. Work on `COc1cccc(COc2ccc(S(=O)(=O)c3ccc(C)nc3Nc3c(C)cc(C)cc3C)cc2)c1` yielded a melting point of 124 to 126 °C. Compound `CC1C(C)(C)C2CCc3cnoc3C2C1(C)C` (stereo not given) has a melting point of 82.3 °C. With `O=C1OCCC1Oc1ccc(Cl)cc1[N+](=O)[O-]` (stereo not given) the melting point was 136 to 140 °C. Compound `CN(C)C(=O)COc1ccc2c(c1)C[C@@H](NC[C@H](O)c1ccc(O)cc1)CC2` has a melting point of 169 to 172 °C. For `COc1ccc(-c2ccc(C(=O)O)cc2)c2c1OC(C)(C)C2`, the melting point was 249 to 252 °C. With `C[C@H](O)CCOc1c(-c2ccc(S(C)(=O)=O)cc2)cnn(-c2ccc(F)c(F)c2)c1=O` the melting point was 128 to 130 °C. Compound `CCOc1ccc(Cc2cnc(N)nc2N)cc1OC` has a melting point of 195 to 196 °C. With `O=c1[nH]c2cc(F)ccc2c(=O)n1S(=O)(=O)c1ccc(Cl)cc1` the melting point was > 200 °C. For `O=C(O)CNC(=O)c1c(Cl)cc(N2C(=O)N3CCCC3(Cc3ccc(Br)cc3)C2=O)cc1Cl` (stereo not given), the melting point was 157 to 158 °C. In the case of `CCC1C(C)=NN=C(c2cc(OC)c(OC)c(OC)c2)c2cc(OC)c(OC)cc21` (stereo not given), the melting point is reported as 152 to 155 °C. Work on `NC(=O)CCn1nccc1-c1ccc(Oc2ccc(F)cc2)cc1` yielded a melting point of 118 to 120 °C. With `OC1CCN(CC(O)c2cc(-c3ccccc3)on2)CC1` (stereo not given) the melting point was 117 to 119 °C. `Nc1ncc(-c2ccc(C(F)(F)F)cc2)cc1C(F)(F)F` gave a melting point of 168 °C. `CCN1CCNC1=C[N+](=O)[O-]` showed a melting point of 110 to 111 °C. With `COc1cccc2sc(NC(=O)COC(C)=O)nc12` the melting point was 161 to 162 °C. With `COc1cc2c(cc1CNC1CCCNC1c1ccccc1)N(C)C(=O)CC2(C)C` (stereo not given) the melting point was > 280 °C. Work on `Cn1c2c(c3cc(OCc4ccccc4)ccc31)CC(C(N)=O)C2` (stereo not given) yielded a melting point of 145 to 148 °C. In the case of `N[C@@H]1C(=O)N[C@@H]1COC(=O)c1ccccc1` (relative stereo), the melting point is reported as 150 to 151 °C. `Cn1nc2c(N)nc3ccccc3c2c1CC(C)(C)NC(=O)c1ccccc1` showed a melting point of 194 to 196 °C. In the case of `COc1ccccc1NC(=O)Nc1ccc(N2CCN(C(=O)Nc3ccc(OCCO)cc3Cl)CC2)c(Cl)c1`, the melting point is reported as 173 to 175 °C. Work on `CCCCCCCCCCCCc1cnn(C(C(=O)O)c2ccccc2)n1` (stereo not given) yielded a melting point of 94 to 98 °C. `Cc1oc(-c2ccccc2)nc1CCOS(C)(=O)=O` gave a melting point of 88.2 to 89 °C. In the case of `CC(=O)c1ccc(-c2ccc(F)cc2F)c(N)c1`, the melting point is reported as 93 to 95 °C. `O=C(Cl)OCC1c2c(c3ccccc3c3ccccc23)-c2c1c1ccccc1c1ccccc21` showed a melting point of 188 to 189 °C. `CC(CNC(=O)c1ccc(Oc2ccc(F)cc2)o1)N(O)C(N)=O` (stereo not given) gave a melting point of 180 to 181 °C. `CNC(=O)N1CC(Oc2cccc(C)c2)C1` showed a melting point of 138 to 142 °C. With `COC(=O)CC(S)C(CC(C)C)C(=O)NC(Cc1ccccc1)C(N)=O` (stereo not given) the melting point was 64 to 66 °C. `COC(=O)CN(c1ccc(Cl)cc1C(=O)c1ccccc1F)S(=O)(=O)c1ccc(N)cc1` showed a melting point of 168 to 170 °C.
